In EP0169405A2, “Use of substituted pyrimido (5,4-d) pyrimidines” (BOEHRINGER INGELHEIM KG, priority 1984, dated 1986):
Where two headings read alike, the source gives them in different places.

Legend:
[1] = tested on: Störung des Kurzzeitgedächtnisses; experiment: Reversal of scopolamine-induced disturbance of short-term memory; assay type: in vivo; conditions: po; scopolamine-induced memory disturbance is reversed; read-out: niedrigste wirksame Dosis (wirksam ab)
Excerpt: In der Formel I bedeutet • ^R1 einen Cl-C3-Alkoxy-(C2-C3-alkyl)rest, • ^R2 einen C2-C6-Hydroxyalkylrest oder einen C3-Dihydroxy- alkylrest, • ^R3 einen C1-C3-Alkoxy-(C2-C3-alkyl) rest oder einen C2-C3-Hydroxyalkylrest, • R4 einen Dialkylaminorest, wobei jeder Alkylrest 1 bis 6 C-Atome enthalten kann, die Diallyl- oder Di-(methoxyethyl)-aminogruppe oder einen gegebenenfalls durch eine Methylgruppe substituierten Pyrrolidino-, Piperidino-, Hexamethylenamino-, 1', 2', 5', 6'-Tetrahydropyridino-, Morpholino-, Thiomorpholino- oder 1-Oxidothiomorpholinoring. Die Verbindungen können als freie Basen oder als physiologisch verträgliche Säureadditionssalze mit anorganischen oder organischen Säuren vorliegen. Es wurde nun in tierexperimentellen Untersuchungen gefunden, daß die Verbindungen überraschenderweise besonders zur Beeinflussung eingeschränkter zerebraler Leistungsfähigkeit geeignet sind. Die folgenden Ergebnisse stützen diese Aussage: • 1. Durch gabe des muskarinen cholinergen Antagonisten Scopolamin wird eine Störung des Kurzzeitgedächtnisses bzw. des Übergangs von Inhalten des Kurzzeit- in das sogenannte Langzeitgedächnis erzeugt. Diese Einschränkung wird durch die neuen Verbindungen aufgehoben. […]

[2] = Acute toxicity in the mouse (LD50); conditions: in vivo

Structure (SMILES) | minimal effective dose [1] [mg/kg] | LD50 ([2]; iv, read-out: i.v. LD50) [mg/kg] | LD50 ([2]; po, read-out: p.o. LD50) [mg/kg]
COc1ccc(C(=O)N2CCCC2=O)cc1 [Aniracetam] | 50 |  | 
NC(=O)CN1CCCC1=O [Piracetam] | 150 |  | 
CCN(CC)c1nc(N(CCO)CCOC)nc2c(N(CC)CC)nc(N(CCO)CCOC)nc12 [Verbindung (B)] |  | 133 | > 3000
